Structures can show the parent of a compound that is named as a salt.
Experiments:
[1] = tested on: spontaneously hypertensive rat; test: Telemetric monitoring of blood pressure and heart rate in spontaneously hypertensive rats, compounds given via the drinking water; type: in vivo; conditions: SHR; for DBP, change vs. baseline / HR, change vs. baseline / SBP, change vs. baseline: mean, n=5
Excerpt: Male spontaneously hypertensive rats (=SHR, insulin resistant strain from Charles River; aged 6 months) were equipped with telemetry transmitters for continuous monitoring of blood pressure and heart rate (as described below). After 3 days of monitoring under baseline (untreated) conditions, animals were divided into two groups receiving an AT1-receptor antagonist (eprosartan mesylate, hereinafter referred to as experiment I; or candesartan cilexetil, hereinafter referred to as experiment II) or an AT1-receptor antagonist plus daglutril in combination. In experiment II, a third group of rats was included, receiving only daglutril. Compounds were administered via the drinking water, and daily drug intake was measured by weighing the water bottles thrice weekly. Intended daily doses in experiment I were 60 mg/kg/day of eprosartan mesylate plus, in the combination group, 100 mg/kg/day of daglutril. In experiment II, intended daily doses were 1 mg/kg of candesartan cilexetil, and 100 mg/kg of daglutril in the daglutril only and the combination group. Telemetry transmitters for continuous monitoring of blood pressure, heart rate and locomotor activity (TA11PA-C40, Data Sciences, USA) were implanted intraabdominally under inhalative halothane anesthesia. A midline abdominal incision was made, and the abdominal aorta was visualized by removal of retroperitoneal fat and connective tissue. A ligature was placed caudal of the renal arteries, the aorta was punctured with a 22G needle, and the catheter was advanced into the aorta. The entry point was sealed with tissue adhesive (Vetbond®, 3M, USA), the ligature was removed, and the abdominal incision was closed. Measurements of aortic pressure were taken every 5 minutes (=min) for 4 seconds (=s) each at a sampling rate of 500 Hz, and were corrected for the corresponding ambient pressure (ambient pressure monitor, C11 PR, Data Sciences, USA).
Concentrations of AT1-receptor antagonists and daglutril in the drinking water were adjusted once per week, in order to ensure the intended daily intake. In experiment I, the average daily water intake throughout the 33 days treatment period amounted to 51 and 56 ml/kg in the eprosartan and eprosartan plus daglutril group, respectively, resulting in the uptake of 62 mg/kg/day of eprosartan in both groups, and 104 mg/kg/day of daglutril in the combination group. In experiment II, the average daily water intake during the 25 days treatment period was 64 ml/kg (candesartan only), 62 ml/kg (daglutril only) and 62 ml/kg (candesartan plus daglutril), resulting in daily doses of 0.9 mg/kg of candesartan in both, the candesartan and combination group, and 101 mg/kg and 98 mg/kg of daglutril in the daglutril and combination group, respectively.
The blood pressure, heart rate and activity values, sampled in 5 min intervals by the Dataquest system, were used for calculation of individual 24 hours (=h)-means. These 24 h means were exported to Excel, and group mean values of systolic blood pressure (=SBP), diastolic blood pressure (=DBP), heart rate (=HR), and locomotor activity (=ACT) were calculated for the different treatment groups. For the statistical analysis, a baseline value (pre) was calculated from 3 days prior to compound application, and effects of AT1-receptor antagonist, daglutril and their combination were calculated in relation to this baseline value (average value during the treatment period minus baseline value). The statistical comparison was done by using analysis of variance, followed by two-tailed Student's t-test for comparison of AT1 receptor antagonist and combination groups, both at an error level of P<0.05.

[2] = tested on: human subjects with congestive heart failure; test: Single dose study of oral daglutril during 12-hour right heart catheterization, subgroup analysis by concomitant losartan potassium; type: in vivo; conditions: human CHF subjects, single oral dose of daglutril (200, 400 or 800 mg groups pooled), with or without concomitant losartan potassium; value is mean change (SE)
Protocol: A randomized, placebo-controlled, parallel group, multi-center, single dose study of oral daglutril (vide supra) during 12-hour right heart catheterization in human subjects with congestive heart failure (=CHF) was performed. Each subject received one dose of daglutril or placebo. The study consisted of three visits (or study days when in-subjects were included). Ambulatory subjects were in hospital for two nights and one day. […]
The primary efficacy parameter was the maximum decrease from baseline over 6 hours for SVR and was compared between treatment groups using analysis of covariance, with the baseline value as covariate and center and NYHA classification as factors. […] In addition, the existence of a dose-response relationship for daglutril was evaluated by investigating linear, quadratic and cubic contrasts. The secondary efficacy parameter was the maximum change from baseline for PCWP and was analyzed in the same way as the primary variable. The maximum decrease from baseline over 12 hours, the change from for each individual time point and the adjusted area under the curve (=AUC) over 6 and 12 hours were analyzed for SVR and PCWP, using similar statistical methodology as for the main parameter of interest. All other tertiary efficacy parameters were analyzed using the same statistical methodology as for the primary efficacy parameter. […]

[3] = experiment II, 25 days via drinking water, candesartan 0.9 mg/kg/day, daglutril 101 mg/kg (alone) or 98 mg/kg (combination)
[4] = experiment I, 33 days via drinking water, eprosartan 62 mg/kg/day, daglutril 104 mg/kg/day in combination

| SMILES | DBP, change vs. baseline [1, 3] | HR, change vs. baseline [1, 3] | SBP, change vs. baseline [1, 3] | DBP, change vs. baseline [1, 4] | HR, change vs. baseline [1, 4] | SBP, change vs. baseline [1, 4] | Placebo corrected mean change of MPAP (average 0.5-6 hrs) [2] | reduction in blood pressure (in words) ([1]; daglutril given alone) |
| --- | --- | --- | --- | --- | --- | --- | --- | --- |
| CCOc1nc2cccc(C(=O)OC(C)OC(=O)OC3CCCCC3)c2n1Cc1ccc(-c2ccccc2-c2nn[nH]n2)cc1 (centres unmarked) [Candesartan, candesartan cilexetil] | −19.7 mmHg | -3.0 min⁻¹ | −22.8 mmHg |  |  |  |  |  |
| CCCCc1ncc(/C=C(\Cc2cccs2)C(=O)O)n1Cc1ccc(C(=O)O)cc1 [Eprosartan, eprosartan mesylate] |  |  |  | −5.6 mmHg | -7.6 min⁻¹ | −5.9 mmHg |  |  |
| CCOC(=O)C(CCc1ccccc1)CC1(C(=O)NC2CCc3ccccc3N(CC(=O)O)C2=O)CCCC1 (centres unmarked) [daglutril, 2-[1-(1-carboxymethyl-2-oxo-2,3,4,5-tetrahydro-1H-benzo[b]azepin-3-ylcarbamoyl)-cyclopentylmethyl]-4-phenyl-butyric acid ethyl ester] | 0.8 mmHg | -2.0 min⁻¹ | −1.5 mmHg |  |  |  | −3.35 (1.06) mmHg | did not lead to a reduction in blood pressure |

— patent publication US20100203132A1, “Pharmaceutical Compositions Comprising NEP-Inhibitors, Inhibitors of the Endogenous Endothelin Producing System and AT1 Receptor Antagonists” (Solvay Pharmaceuticals GmbH, priority 2004, published 2010)
